Measurements: patent publication US12492169B2, “Aminopyridine compound and application thereof” (priority 2020, dated 2025)
Values joined by “and” are separate entries in the source; they are usually repeats but may differ in a detail not shown here. Equal entries are not always repeated.

Assays:
[1] = Pharmacokinetic evaluation in rats (IV, PO); format: in vivo, Sprague-Dawley strain rats; conditions: Sprague-Dawley, plasma, Rat
Source text: (§1) Experimental Purpose: To evaluate the druggability of the compounds by measuring its pharmacokinetic properties in different animal species.
(§2) Experimental materials: CD-1 mice, Sprague-Dawley strain rats, beagle dogs, and crab-eating macaques.
(§3) Drug preparation: An appropriate amount of sample was weighed and then prepared into a clear or suspended solution.
(§4) Experimental procedure: The animal pharmacokinetic characteristics after intravenous injection and oral administration of the compound were tested using a standard protocol. The candidate compound was prepared as a clear solution (for intravenous injection) or a homogeneous suspension (for oral administration) during the experiment and administered to the animals as a single dose. Whole blood samples were collected at 0.083, 0.25, 0.5, 1, 2, 4, 8, and 24 hours, centrifuged at 3200 g for 10 minutes to separate the supernatant to obtain plasma samples. The plasma concentration was quantitatively analyzed by LC-MS/MS analysis method and pharmacokinetic parameters were calculated, such as peak concentration, peak time, clearance rate, half-life, area under the drug-time curve, etc.

[2] = tested on: Candida albicans ATCC MYA-4788; assay: Mouse Candida vaginal infection model; format: in vivo; conditions: female C3H/NeH mice, 20 mpk intraperitoneally once a day for 3 days after ABT, CFU at 96 hours of infection, P<0.001
Description: • Experimental animals: female C3H/NeH mice, 6 to 8 weeks old, 19 to 21 g, n=5 to 6; • microbial pathogen: Candida albicans ATCC MYA-4788; • inoculation level and route: 5.0E+05 CFU/mouse, infected by vaginal instillation; • test sample: WX004: 20 mpk
Treatment: ABT was administered orally 22 hours after infection, and the test compound was injected intraperitoneally 24 hours after infection. In this experiment, the Vehicle group and the test compound group were set up, with a total of 3 days of administration, once a day, and a administration volume of 10 mL/kg.
Observation indicators: After 96 hours of infection in each group of mice, the vaginal tissue and vaginal lavage fluid of the mice were taken for CFU counting. Plasma samples were collected at 0.25 h, 0.5 h, 1 h, 2 h, 4 h, 8 h, and 24 h after the last administration.

[3] = Pharmacokinetic evaluation in mice (IV); format: in vivo, CD-1 mice; conditions: CD-1, plasma, 1 mg/kg, Mouse, 1 mpk
Source text: as §1, §2, §3, §4

[4] = tested on: Aspergillus fumigatus ATCC-MYA-4609; assay: Minimum effective concentration (MEC) test against fungi; format: cell-based; conditions: change of hyphae morphology by microscope, 48 hours, three independent experiments
Description: (§5) To test the minimum inhibitory concentration (MIC) and minimum effective concentration (MEC) of the drug against fungi.
(§6) Aspergillus fumigatus ATCC-MYA-4609; Aspergillus flavus ATCC MYA-1004
(§7) Test medium: RPMI1640 (containing 0.165 M MOPS, pH7.0)
(§8) On the day of the experiment, the compound in the bottle was dissolved in 100% DMSO to a stock solution concentration of 6.24 mg/mL. Then, the mixture was 10-fold diluted with DMSO to 0.624 mg/mL for use.
(§9) A 2-fold gradient dilution of the compound solution (0.624 mg/mL) was performed using DMSO on a 96-microwell plate (V-bottom) to obtain 100× working solutions (wells 1 to 11). 624, 312, 156, 78, 39, 20, 10, 5, 2.5, 1.25, 0.625 μg/mL. 100% DMSO was used as a positive control (well 12). This was the compound stock plate.
(§10) Aspergillus fumigatus ATCC-MYA-4609; Aspergillus flavus ATCC MYA-1004 frozen at −80° C. were streaked on SDA plates and incubated aerobically in a 30±2° C. incubator for 6 days.
(§11) For strains Aspergillus fumigatus ATCC MYA-4609; Aspergillus flavus ATCC MYA-1004, after taking out the plate, 3 mL of 0.9% normal saline containing 0.1% Tween20 was added to the plate and the spores were gently collected. The spores were counted with a hemocytometer and the spore suspension was adjusted to about 5×10^6 spores/mL. Then the spore suspension was diluted to 0.8 to 1×10^5 spores/mL with a test medium.
(§12) 2 μL of 100× working solution from the compound stock plate (prepared in 3.1) was transferred to a round-bottomed 96-well plate (containing 98 μL of test medium), and then 100 μL of fungus inoculum (prepared in 3.2) was added to each well to obtain a MIC test plate. Therefore, the final test concentrations of the compounds were 6.24, 3.12, 1.56, 0.78, 0.39, 0.20, 0.10, 0.05, 0.025, 0.0125, 0.006 μg/mL. 1% DMSO was used as a growth control.
(§13) For mold strains Aspergillus fumigatus ATCC-MYA-4609 and Aspergillus flavus ATCC MYA-1004, all test plates were incubated aerobically in a 35±° C. incubator for 48 hours.
(§14) After incubation, according to the criteria in Table 1 below, the test plate was observed by eye or microscope to determine the MIC (g/mL) and MEC (g/mL) of the test compound against yeast and mold.

[5] = tested on: Aspergillus flavus ATCC MYA-1004; assay: as above; format: cell-based; conditions: change of hyphae morphology by microscope, 48 hours, three independent experiments
Description: as §5, §6, §7, §8, §9, §10, §11, §12, §13, §14

[6] = tested on: Candida albicans ATCC MYA-2876; assay: Mouse candidemia efficacy model; format: in vivo; conditions: female CD-1 mice infected with Candida albicans ATCC MYA-2876
Description: Experimental animals: female CD-1 mice, 7 weeks old, 27 to 29 g, n=5 or 8;
microbial pathogen: Candida albicans ATCC MYA-2876;
inoculation level and route: 2.0 to 4.0E+05 CFU/mouse, infected by tail vein injection;
treatment: The treatment started at 1 hour after infection. Firstly, ABT was administered orally, and 2 hours later, the test compound was injected intraperitoneally once a day for 7 days in total, with an administration volume of 10 mL/kg.
Observation indicators: Changes in body weight and mortality within 7 days after infection in each group of mice.

[7] = Pharmacokinetic evaluation in dogs (IV, PO); format: in vivo, beagle dogs; conditions: beagle, plasma, Dog
Source text: as §1, §2, §3, §4

[8] = in vivo; design: species or system crab-eating macaques; conditions: monkey
Source text: as §1, §2, §3, §4

[9] = crab-eating macaque (cynomolgus), iv, 0.4 mg/kg
[10] = crab-eating macaque (cynomolgus), po, 10 mg/kg

What does the source list for `Nc1ccc(C#CCc2ccc(COc3ccccn3)cc2)cn1` [WX004]?
AUC ([1]; 3 mg/kg, IV, 3 mpk): 22 µM·h; Vd ([1]; 3 mg/kg, IV, 3 mpk): 1.8 L/kg; clearance ([1]; 3 mg/kg, IV, 3 mpk): 7 mL/min/kg; half-life ([1]; 3 mg/kg, IV, 3 mpk): 4 h; AUC ([1]; 30 mg/kg, PO, 30 mpk): 95 µM·h; Cmax ([1]; 30 mg/kg, PO, 30 mpk): 10 µM; Tmax ([1]; 30 mg/kg, PO, 30 mpk): 1.5 h; bioavailability ([1]; 30 mg/kg, PO, 30 mpk): 45%; reduction of fungal load in the vaginal lavage fluid compared with the Vehicle group [2]: 2.5 lg; reduction of fungal load in the vaginal tissue compared with the Vehicle group [2]: 2.7 lg; AUC [3]: 2 µM·h; Vd [3]: 5.2 L/kg; clearance [3]: 28 mL/min/kg; half-life [3]: 2.1 h; MEC [4]: 0.1 µg/mL; MEC [5]: 0.39 µg/mL and 0.78 µg/mL; protection from death caused by candidemia ([6]; 26 mg/kg intraperitoneally once a day for 7 days after 50 mg/kg ABT orally, n=5): completely protect; survival rate ([6]; 6 mpk intraperitoneally once a day for 7 days after ABT orally, n=8): 100%; AUC ([7]; 1 mg/kg, IV, 1 mpk): 2.8 µM·h; Vd ([7]; 1 mg/kg, IV, 1 mpk): 2.8 L/kg; clearance ([7]; 1 mg/kg, IV, 1 mpk): 21 mL/min/kg; half-life ([7]; 1 mg/kg, IV, 1 mpk): 2.5 h; AUC ([7]; 10 mg/kg, PO, 10 mpk): 14 µM·h; Cmax ([7]; 10 mg/kg, PO, 10 mpk): 6.5 µM; Tmax ([7]; 10 mg/kg, PO, 10 mpk): 0.75 h; bioavailability ([7]; 10 mg/kg, PO, 10 mpk): 51%; AUC [8, 9]: 5 µM·h; Vd [8, 9]: 4.4 L/kg; clearance [8, 9]: 4.3 mL/min/kg; Cmax [8, 10]: 9 µM; Tmax [8, 10]: 4 h; AUC ([8]; crab-eating macaque, po, 10 mg/kg): 72 µM·h; half-life ([8]; iv, 0.4 mg/kg): 3.5 h; bioavailability ([8]; po, 10 mg/kg): 60%
